In the assay the target is SAT1 (flag-tagged recombinant SAT1) (Homo sapiens, UniProt P21673). Nature of the assay: DTNB-coupled SAT1 activity assay, Lineweaver-Burk plot. Type of assay: biochemical. Conditions: co-substrate histone H3 (200 ng); pH 8.0, 35 °C; no ginkgolide B.
Chain of SAT1 (flag-tagged recombinant SAT1) (P21673 whole entry): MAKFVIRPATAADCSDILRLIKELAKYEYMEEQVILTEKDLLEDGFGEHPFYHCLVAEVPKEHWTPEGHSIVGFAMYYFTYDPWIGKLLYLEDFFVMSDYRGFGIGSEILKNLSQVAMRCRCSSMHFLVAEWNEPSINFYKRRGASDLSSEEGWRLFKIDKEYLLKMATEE

For `CC(=O)SCCNC(=O)CCNC(=O)[C@H](O)C(C)(C)COP(=O)(O)OP(=O)(O)OC[C@H]1O[C@@H](n2cnc3c(N)ncnc32)[C@H](O)[C@@H]1OP(=O)(O)O` [acetyl-CoA], the km entry is “Both the Vmax and km values decreased with the addition of GB”.

The values are drawn from paper PMC11968987 (Nature Communications, 2025).
